The target in the test is T1, human CDK9/CyclinT kinase complex (Homo sapiens, UniProt P50750).
T1 construct: purchased Proqinase 0371-0345-1
As to the kind of experiment: In vitro CDK9/CyclinT assay (IMAP fluorescence polarization kinase assay). Type of test: biochemical. Particulars: for IC50: 5 nM CDK9/CyclinT, 400 nM TAMRA-Rbtide, 12 μM ATP, 1 hour at room temperature, read-out: CDK9 inhibitory range. Here is the method: In Vitro CDK9/CyclinT Assay
The activity of the compounds described in the present invention can be determined by the following kinase assay, which measures the phosphorylation of a fluorescently-labeled peptide by human CDK9/CyclinT kinase complex by fluorescent polarization using a commercially available IMAP Screening Express Assay Kit (Molecular devices).
CDK9 kinase assays were performed in low protein binding 384-well plates (Corning 3676). Test compounds were diluted in 100% DMSO to 5 mM stock concentration, then further dilutions were made in H2O or 100% DMSO to desirable concentrations.
Each reaction consisted of 5 nM enzyme: CDK9/CyclinT (Proqinase cat#0371-0345-1), 400 nM TAMRA-Rbtide (synthetic 15-mer peptide derived from human retinoblastoma tumor suppressor protein labelled with TAMRA dye, Genecust Europe), 12 μM ATP (=Kmapp, Sigma-Aldrich) and kinase buffer: 20 mM MOPS pH 7 (Sigma-Aldrich), 1 mM DTT (Sigma-Aldrich), 10 mM MgCl2 (Sigma-Aldrich), 0.01% Tween 20 (Sigma-Aldrich).
For each reaction, 4 or 6 μl containing TAMRA-Rbtide, ATP and kianse buffer were combined with 2 μl diluted compound in H2O or 0.028 μl compound in 100% DMSO. The kinase reaction was started by the addition of 2 μl diluted enzyme. The reaction was allowed to run for 1 hours at room temperature. The reaction was stopped by adding 15 μl IMAP beads (1:400 beads in progressive (100% buffer A) 1× buffer). After an additional 1 hours, fluorescent polarization (Ex: 550-10 nm, Em: 590-10 nm, Dich: 561 nm) was measured using an Analyst GT (Molecular devices).

Structures can show the parent of a compound that is named as a salt.

Consider 33 molecules from US9040529B2 (Vichem Chemie Kutató Kft., priority 2009, dated 2015).

T1 sequence (P50750 whole entry): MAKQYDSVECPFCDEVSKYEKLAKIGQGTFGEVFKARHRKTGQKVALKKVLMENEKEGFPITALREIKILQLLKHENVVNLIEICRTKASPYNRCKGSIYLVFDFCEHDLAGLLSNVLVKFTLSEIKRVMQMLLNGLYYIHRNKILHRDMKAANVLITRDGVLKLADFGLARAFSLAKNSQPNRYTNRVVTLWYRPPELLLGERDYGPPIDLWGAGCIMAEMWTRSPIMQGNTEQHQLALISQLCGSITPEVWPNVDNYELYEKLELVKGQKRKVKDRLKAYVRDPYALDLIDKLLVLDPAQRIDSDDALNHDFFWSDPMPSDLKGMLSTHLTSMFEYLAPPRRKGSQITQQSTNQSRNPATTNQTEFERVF
T1 sequence (O60563 whole entry partner): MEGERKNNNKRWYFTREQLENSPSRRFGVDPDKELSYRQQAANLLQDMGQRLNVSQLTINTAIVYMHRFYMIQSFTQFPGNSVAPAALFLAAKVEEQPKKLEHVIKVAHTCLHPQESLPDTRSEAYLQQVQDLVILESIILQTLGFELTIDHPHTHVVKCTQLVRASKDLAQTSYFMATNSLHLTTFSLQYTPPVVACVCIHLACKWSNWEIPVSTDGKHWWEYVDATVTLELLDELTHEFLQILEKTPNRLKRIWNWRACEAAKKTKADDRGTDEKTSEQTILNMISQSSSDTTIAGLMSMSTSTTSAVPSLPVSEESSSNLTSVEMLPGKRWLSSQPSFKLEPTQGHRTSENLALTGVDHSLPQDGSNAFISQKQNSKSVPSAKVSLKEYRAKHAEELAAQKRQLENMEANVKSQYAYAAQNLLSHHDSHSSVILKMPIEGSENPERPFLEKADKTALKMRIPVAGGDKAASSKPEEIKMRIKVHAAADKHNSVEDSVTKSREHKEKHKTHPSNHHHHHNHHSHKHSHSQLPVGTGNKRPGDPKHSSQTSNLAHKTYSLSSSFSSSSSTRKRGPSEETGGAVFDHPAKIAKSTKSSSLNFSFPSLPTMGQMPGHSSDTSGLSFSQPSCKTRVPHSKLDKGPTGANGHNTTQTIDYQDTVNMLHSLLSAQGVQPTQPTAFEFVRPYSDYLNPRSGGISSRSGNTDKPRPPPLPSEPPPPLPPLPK

As for `COc1ccccc1-c1cc(Nc2cccc(CN)c2)ncn1` [Example 69, (3-Aminomethyl-phenyl)-[6-(2-methoxy-phenyl)-pyrimidin-4-yl]-amine hydrochloride], the CDK9 inhibitory effect entry is reported as “nanomolar or low nanomolar range” and the IC50 is below 100 nM.
With `COc1ccccc1-c1cc(Nc2cccc(CN3C(=O)c4ccccc4C3=O)c2)ncn1` [Example 68, 2-{3-[6-(2-Methoxy-phenyl)-pyrimidin-4-ylamino]-benzyl}-isoindole-1,3-dione], the CDK9 inhibitory effect entry was “nanomolar or low nanomolar range” and the IC50 is below 100 nM.
Take `CS(=O)(=O)NCc1cccc(Nc2cc(-c3cccc(N)c3)ncn2)c1` [Example 22, N-{3-[6-(3-Amino-phenyl)-pyrimidin-4-ylamino]-benzyl}-methanesulfonamide]: the IC50 was below 1000 nM.
The same measure, in the same setting: for `CS(=O)(=O)NCc1ccc(Nc2cc(-c3ccccc3Oc3ccccc3)ncn2)cc1` [Example 40, N-{4-[6-(2-Phenoxy-phenyl)-pyrimidin-4-ylamino]-benzyl}-methanesulfonamide] the value was below 1000 nM.
On to `COc1cc(F)ccc1-c1cc(Nc2ccc(CNS(C)(=O)=O)cc2)ncn1` [Example 39, N-{4-[6-(4-Fluoro-2-methoxy-phenyl)-pyrimidin-4-ylamino]-benzyl}-methanesulfonamide], for which the CDK9 inhibitory effect result is reported as “nanomolar or low nanomolar range” and the IC50 was below 100 nM.
As to `CC(C)Oc1ccccc1-c1cc(Nc2ccc(CNS(C)(=O)=O)cc2)ncn1` [Example 56, N-{4-[6-(2-Isopropoxy-phenyl)-pyrimidin-4-ylamino]-benzyl}-methanesulfonamide], the CDK9 inhibitory effect result is on record as “nanomolar or low nanomolar range” and the IC50 is below 100 nM.
In the same order, the values of `CS(=O)(=O)NCc1ccc(Nc2cc(-c3ccccc3OCc3ccccc3)ncn2)cc1` [Example 35, N-{4-[6-(2-Benzyloxy-phenyl)-pyrimidin-4-ylamino]-benzyl}-methanesulfonamide] are “nanomolar or low nanomolar range” and below 100 nM.
For the molecule `COc1ccccc1-c1cc(Nc2cccc(CNC(=O)c3ccc(F)cc3)c2)ncn1` [Example 84, 4-Fluoro-N-{3-[6-(2-methoxy-phenyl)-pyrimidin-4-ylamino]-benzyl}-benzamide], the IC50 is below 1000 nM.
Regarding `CS(=O)(=O)NCc1cccc(Nc2cc(-c3ccc(O)cc3)ncn2)c1` [Example 75, N-{3-[6-(4-Hydroxy-phenyl)-pyrimidin-4-ylamino]-benzyl}-methanesulfonamide], the IC50 is below 100 nM.
Still for that read-out and setting: for `CS(=O)(=O)NCc1cccc(Nc2cc(-c3ccccc3OCc3ccc(F)cc3)ncn2)c1` [Example 10, N-(3-{6-[2-(4-Fluoro-benzyloxy)-phenyl]-pyrimidin-4-ylamino}-benzyl)-methanesulfonamide] the value was below 1000 nM.
Regarding `COc1cc(F)ccc1-c1cc(Nc2cccc(Cn3cnc4ccccc43)c2)ncn1` [Example 65, (3-Benzoimidazol-1-ylmethyl-phenyl)-[6-(4-fluoro-2-methoxy-phenyl)-pyrimidin-4-yl]-amine], the CDK9 inhibitory effect entry is given as “nanomolar or low nanomolar range” and the IC50 is below 100 nM.
Regarding `CS(=O)(=O)NCc1ccc(Nc2cc(-c3ccccc3)ncn2)cc1` [Example 45, N-[4-(6-Phenyl-pyrimidin-4-ylamino)-benzyl]-methanesulfonamide], the IC50 was below 10000 nM.
With `CCOc1ccccc1-c1cc(Nc2cccc(CNS(C)(=O)=O)c2)ncn1` [Example 5, N-{3-[6-(2-Ethoxy-phenyl)-pyrimidin-4-ylamino]-benzyl}-methanesulfonamide], the CDK9 inhibitory effect entry is recorded as “nanomolar or low nanomolar range” and the IC50 is below 100 nM.
For `COc1cccc(-c2cc(Nc3ccc(CNS(C)(=O)=O)cc3)ncn2)c1OC` [Example 55, N-{4-[6-(2,3-Dimethoxy-phenyl)-pyrimidin-4-ylamino]-benzyl}-methanesulfonamide], the IC50 is below 1000 nM.
For `CC(C)Oc1ccccc1-c1cc(Nc2cccc(Cn3cnc4ccccc43)c2)ncn1` [Example 80, (3-Benzoimidazol-1-ylmethyl-phenyl)-[6-(2-isopropoxy-phenyl)-pyrimidin-4-yl]-amine], the IC50 was below 100 nM.
On the same count and under the same terms, for `Clc1cc(Nc2cccc(Cn3c(CN4CCOCC4)nc4ccccc43)c2)ncn1` [Example 92, (6-Chloro-pyrimidin-4-yl)-[3-(2-morpholin-4-ylmethyl-benzoimidazol-1-ylmethyl)-phenyl]amine] the value was above 10000 nM; for `CS(=O)(=O)NCc1ccc(Nc2cc(-c3ccccc3F)ncn2)cc1` [Example 44, N-{4-[6-(2-Fluoro-phenyl)-pyrimidin-4-ylamino]-benzyl}-methanesulfonamide], below 10000 nM; for `COc1ccccc1-c1cc(Nc2ccc(CNS(C)(=O)=O)cc2)ncn1` [Example 34, N-{4-[6-(2-Methoxy-phenyl)-pyrimidin-4-ylamino]-benzyl}-methanesulfonamide], below 1000 nM.
Consider `COc1ccc(F)cc1-c1cc(Nc2cccc(Cn3cnc4ccccc43)c2)ncn1` [Example 66, (3-Benzoimidazol-1-ylmethyl-phenyl)-[6-(5-fluoro-2-methoxy-phenyl)-pyrimidin-4-yl]-amine], for which the CDK9 inhibitory effect result is given as “nanomolar or low nanomolar range” and the IC50 is below 100 nM.
Regarding `CS(=O)(=O)NCc1cccc(Nc2cc(-c3ccccc3Oc3ccccc3)ncn2)c1` [Example 4, N-{3-[6-(2-Phenoxy-phenyl)-pyrimidin-4-ylamino]-benzyl}-methanesulfonamide], the IC50 is below 1000 nM.
Regarding `CS(=O)(=O)NCc1ccc(Nc2cc(Cl)ncn2)cc1` [Example 33, N-[4-(6-Chloro-pyrimidin-4-ylamino)-benzyl]-methanesulfonamide], the IC50 was above 10000 nM.
The same measure, in the same setting: with `Oc1ccc(-c2cc(Nc3cccc(Cn4cnc5ccccc54)c3)ncn2)cc1` [Example 82, 4-[6-(3-Benzoimidazol-1-ylmethyl-phenylamino)-pyrimidin-4-yl]-phenol] the figure was below 1000 nM.
As to `COc1cc(Cl)ccc1-c1cc(Nc2ccc(CNS(C)(=O)=O)cc2)ncn1` [Example 54, N-{4-[6-(4-Chloro-2-methoxy-phenyl)-pyrimidin-4-ylamino]-benzyl}-methanesulfonamide], the CDK9 inhibitory effect entry is given as “nanomolar or low nanomolar range” and the IC50 was below 100 nM.
Take `COc1ccccc1-c1cc(Nc2cccc(CNS(=O)(=O)c3cccs3)c2)ncn1` [Example 73, Thiophene-2-sulfonic acid 3-[6-(2-methoxy-phenyl)-pyrimidin-4-ylamino]-benzylamide]: the IC50 was below 1000 nM.
Take `CSc1ccccc1-c1cc(Nc2ccc(CNS(C)(=O)=O)cc2)ncn1` [Example 41, N-{4-[6-(2-Methylsulfanyl-phenyl)-pyrimidin-4-ylamino]-benzyl}-methanesulfonamide]: the IC50 is below 1000 nM.
For the molecule `COc1cc(F)ccc1-c1cc(Nc2cccc(CNc3nc4ccccc4[nH]3)c2)ncn1` [Example 61, (1H-Benzoimidazol-2-yl)-{3-[6-(4-fluoro-2-methoxy-phenyl)-pyrimidin-4-ylamino]-benzyl}-amine], the IC50 was below 1000 nM.
Still for that read-out and setting: for `COc1ccccc1-c1cc(Nc2cccc(Cn3ccc4ccccc43)c2)ncn1` [Example 91, (3-Indol-1-ylmethyl-phenyl)-[6-(2-methoxy-phenyl)-pyrimidin-4-yl]-amine] the value was below 10000 nM; for `COc1cc(Cl)ccc1-c1cc(Nc2cccc(CNS(C)(=O)=O)c2)ncn1` [Example 25, N-{3-[6-(4-Chloro-2-methoxy-phenyl)-pyrimidin-4-ylamino]-benzyl}-methanesulfonamide], below 1000 nM.
Same read-out and setting: for `CC(C)Oc1cc(F)ccc1-c1cc(Nc2cccc(Cn3cnc4ccccc43)c2)ncn1` [Example 81, (3-Benzoimidazol-1-ylmethyl-phenyl)-[6-(4-fluoro-2-isopropoxy-phenyl)-pyrimidin-4-yl]-amine] the value was below 100 nM; for `CS(=O)(=O)NCc1ccc(Nc2cc(-c3ccc(F)cc3F)ncn2)cc1` [Example 42, N-{4-[6-(2,4-Difluoro-phenyl)-pyrimidin-4-ylamino]-benzyl}-methanesulfonamide], above 10000 nM.
With `COc1ccc(F)cc1-c1cc(Nc2cccc(CNc3nc4ccccc4[nH]3)c2)ncn1` [Example 62, (1H-Benzoimidazol-2-yl)-{3-[6-(5-fluoro-2-methoxy-phenyl)-pyrimidin-4-ylamino]-benzyl}-amine], the IC50 is below 1000 nM.
Take `CS(=O)(=O)NCc1ccc(Nc2cc(-c3cccc(N)c3)ncn2)cc1` [Example 46, N-{4-[6-(3-Amino-phenyl)-pyrimidin-4-ylamino]-benzyl}-methanesulfonamide hydrochloride]: the IC50 was below 10000 nM.
Same read-out and setting: for `COc1cccc(F)c1-c1cc(Nc2cccc(Cn3cnc4ccccc43)c2)ncn1` [Example 79, (3-Benzoimidazol-1-ylmethyl-phenyl)-[6-(2-fluoro-6-methoxy-phenyl)-pyrimidin-4-yl]-amine] the value was below 100 nM.
